Experimental data: US20100190768A1, “NOVEL FUSED PYROLE DERIVATIVE” (Dainippon Sumitomo Pharma Co., Ltd., priority 2005, published 2010)
Where two headings read alike, the source gives them in different places.

Experiments:
[1] = tested on: H4-III-E cells; assay: TAT (tyrosine aminotransferase) assay; format: cell-based; details: for activation at 10 µM / Agonistic activity of 10 μM test compound: 10 μM test compound alone, relative to maximum Dex-induced TAT activity (100%); for activation at 10 µM: read-out: Agonistic activity of 10 μM test compound; for Antagonistic activity of 10 μM test compound: 10 μM test compound together with 0.005 μM dexamethasone, inhibitory ratio against TAT activity increase by Dex
Description: H4-III-E cells, which had been continuously cultured in α-MEM medium A (supplemented with 10% inactivated FBS, 50 μM 2-mercapto-ethanol), were suspended in α-MEM medium A or α-MEM medium B (supplemented with 10% inactivated FBS, 50 μM 2-mercapto-ethanol, but without phenol red), and the cell suspension was seeded to a 96-well plate in an amount of 2×10^4 cells/100 μl/well, and the cells were cultured overnight. The supernatant in the medium was removed, and a test compound (100 μl, diluted with α-MEM medium A or α-MEM medium B) was added, and the cells were further cultured overnight. In order to measure the agonistic activity, a test compound was added alone, while in order to measure the antagonistic activity, a test compound was added simultaneously together with 0.005 μM dexamethasone and evaluated the extent of the inhibitory effect of said test compound against the TAT activity-inducing activity by dexamethasone.
The culture supernatant in the plate was removed by suction, and a cell lysate (20 μL; 1% NP-40, 0.2% Triton X-100, 0.25% DOC, 0.1% SDS, 1 mM EGTA, 150 mM NaCl, Tris (pH7.4), Protease inhibitor cocktail [2.5 mg/ml aprotinin, 2.5 mg/ml leupeptin, 2.5 mg/ml soybean trypsin inhibitor]) was added, and further thereto was added a TAT reaction reagent (150 μL; 10 N KOH, 0.125 M KH2PO4, 0.5 M α-ketoglutarate, 5 mM Pyridoxal-5′ phosphate, L-tyrosine), and the mixture was reacted at 37° C. for 15 minutes. Further, a 10N KOH (20 μL) was added thereto, and the mixture was reacted at 37° C. for 30 minutes, and the absorbance at 331 nm was measured by a microplate reader (SPECTRA MAX 250).
From the mean absorbance in the wells to which a test compound was added, the mean absorbance in the wells to which a compound and a TAT reaction solution were not added was subtracted.
Agonistic activity (%)=100×[(absorbance of the drug-treated group)−(absorbance of the group without TAT reaction reagent)]/[(absorbance of Dex-treated group)−(absorbance of the group without TAT reaction reagent)]
On the other hand, the antagonistic activity was calculated as follows.
Antagonistic activity (%)=Inhibitory ratio (%) against TAT activity increase by Dex=100−100×[(absorbance of the drug-treated group)−(absorbance of the group without a drug)]/[(absorbance of Dex-treated group)−(absorbance of the group without a drug)]
With regard to the agonistic activity and the antagonistic activity, the results of 10% or more were expressed as O, while the results of less than 10% were expressed as X.

[2] = molecular target: T1, human GRα protein (Homo sapiens, UniProt P04150); assay: Binding inhibitory assay (displacement of 3H-dexamethasone from the cytoplasm fraction of baculovirus-infected insect cells); details: for inhibition at 0.1 µM: read-out: Binding Inhibitory ratio (%) of 100 nM of test compound
T1 construct: made in house; host or cells: insect cells infected with baculovirus; cytoplasm fraction used
T1 sequence (P04150 1-777): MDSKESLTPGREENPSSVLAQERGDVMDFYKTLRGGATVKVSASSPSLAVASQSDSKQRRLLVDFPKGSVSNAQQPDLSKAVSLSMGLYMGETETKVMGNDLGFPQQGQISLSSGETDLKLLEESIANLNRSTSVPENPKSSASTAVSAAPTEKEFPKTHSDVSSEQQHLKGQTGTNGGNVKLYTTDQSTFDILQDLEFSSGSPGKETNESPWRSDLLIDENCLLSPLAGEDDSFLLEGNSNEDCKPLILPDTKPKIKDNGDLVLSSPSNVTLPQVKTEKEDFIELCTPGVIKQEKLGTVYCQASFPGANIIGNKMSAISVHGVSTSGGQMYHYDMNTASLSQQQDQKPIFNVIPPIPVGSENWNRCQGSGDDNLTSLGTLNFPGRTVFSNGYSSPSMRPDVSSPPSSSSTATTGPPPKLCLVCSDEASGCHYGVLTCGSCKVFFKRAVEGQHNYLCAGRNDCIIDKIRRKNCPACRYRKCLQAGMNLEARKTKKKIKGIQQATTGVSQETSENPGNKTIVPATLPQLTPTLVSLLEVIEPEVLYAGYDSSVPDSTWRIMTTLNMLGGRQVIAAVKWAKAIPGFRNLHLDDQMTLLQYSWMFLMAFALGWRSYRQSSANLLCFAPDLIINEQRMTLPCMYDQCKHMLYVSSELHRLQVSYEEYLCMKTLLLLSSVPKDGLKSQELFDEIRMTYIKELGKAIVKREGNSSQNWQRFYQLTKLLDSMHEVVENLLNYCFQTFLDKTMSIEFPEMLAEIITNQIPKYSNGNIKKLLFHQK
Description: Insect cells, which had been infected with baculovirus for expressing human GRα protein, were suspended in an approximately equal volume of a binding buffer (10 mM Tris-Cl, 1.5 mM EDTA, 10% glycerol, 5 mM DTT, 20 mM sodium molybdate, pH 7.6). The mixture was rapidly frozen with liquid nitrogen, and then melted at room temperature. This cycle was repeated totally twice in order to break the cell membrane. The mixture was ultracentrifuged under 100,000 g at 4° C. for one hour to give the supernatant, which was the cytoplasm fraction containing human GRα protein.
A polypropylene 96-well plate (manufactured by Costar Corporation, etc.) was placed on ice, and DMSO or a test compound (each 1 μl) was put into each well. A 10 nM ^3H-Dex solution (50 μl; tritiated dexamethasone; manufactured by Amersham) in the binding buffer, and a GR protein solution, i.e., a solution by diluting the above cytoplasm fraction with the binding buffer (50 μl) were added to each well, and the plate was lightly shaken with a plate mixer, and then left to stand at 4° C. for 16 to 20 hours (the final concentration of DMSO: 1%).
A 5% solution of dextran-coated active carbon (manufactured by Sigma) suspended in the binding buffer (50 μl) was put into each well, and the plate was lightly shaken with a plate mixer for 30 seconds. Then, the plate was centrifuged at 2500 rpm at 4° C. for 5 minutes, and the ^3H count in the supernatant (50 μl) was measured by a TopCount (manufactured by Perkin-Elmer Corporation). Each test compound was tested twice.
The binding activity was calculated as follows. The mean ^3H count in the presence of dexamethason (Dex) 10 μM was considered as NSB (non-specific binding), and the binding inhibitory ratio in each well was calculated by the following equation.
Binding Inhibitory Ratio (%)=100×{1−(cpm value of each well−NSB)/(mean cpm value of DMSO-well−NSB)}
(cpm means count per minute)
The mean binding inhibitory ratio of each well was calculated by the above equation to give a binding inhibitory ratio of each test compound.

[3] = 100 nM test compound, 3H-Dex, NSB with 10 μM dexamethasone

Q: How did the activation at 10 µM [1] turn out when `O=[N+]([O-])c1ccc2c(C(O)(CN3CCCCC3)C(F)(F)F)cn(Cc3ccccc3)c2c1` (centres unmarked) [Example 1, 2-(1-Benzyl-6-nitro-1H-indol-3-yl)-1,1,1-trifluoro-3-piperidin-1-ylpropan-2-ol] was run?
A: Its activation at 10 µM is under 10%.

Q: What about the “Antagonistic activity of 10 μM test compound” value (shortened to “Antagonistic activity”) [1] of the same molecule?
A: Its value is “◯”.

Q: And the inhibition at 0.1 µM [2, 3]?
A: Its inhibition at 0.1 µM is 92%.

Q: `CCOC(=O)C(O)(c1cn(Cc2ccccc2)c2cc([N+](=O)[O-])ccc12)C(F)(F)F` (centres unmarked) [Example 2, Ethyl 2-(1-benzyl-6-nitro-1H-indol-3-yl)-3,3,3-trifluoro-2-hydroxypropanoate] was tested. Which activation at 10 µM [1] did it give?
A: Its activation at 10 µM is under 10%.

Q: And the “Antagonistic activity” value [1]?
A: Its value is “◯”.

Q: What about the inhibition at 0.1 µM [2] of the same molecule?
A: The inhibition at 0.1 µM was 87%.

Q: What does the source list for `C=CCC(O)(c1cn(Cc2ccccc2)c2cc([N+](=O)[O-])ccc12)C(F)(F)F` (centres unmarked) [Example 8, 2-(1-Benzyl-6-nitro-1H-indol-3-yl)-1,1,1-trifluoropent-4-en-2-ol]?
A: activation at 10 µM [1]: < 10%; Antagonistic activity of 10 μM test compound [1]: ◯; inhibition at 0.1 µM [2, 3]: 98%

Q: Which activation at 10 µM [1] does the source give for `CCOC(=O)C(O)(c1cn(Cc2ccccc2)c2c([N+](=O)[O-])cccc12)C(F)(F)F` (centres unmarked) [Example 21, Ethyl 2-(1-benzyl-7-nitro-1H-indol-3-yl)-3,3,3-trifluoro-2-hydroxypropanoate] here?
A: Its activation at 10 µM is under 10%.

Q: And the “Antagonistic activity” value [1]?
A: The value was “◯”.

Q: What about the “Binding Inhibitory ratio (%) of test compound (1 μM)” value ([2]; 1 μM test compound, 3H-Dex, NSB with 10 μM dexamethasone) of the same molecule?
A: The value was 79%.

Q: How did the activation at 10 µM [1] turn out when `Cc1ccccc1C(=O)CC(O)(c1cn(Cc2ccccc2)c2cc([N+](=O)[O-])ccc12)C(F)(F)F` (centres unmarked) [Example 68, 3-(1-Benzyl-6-nitro-1H-indol-3-yl)-4,4,4-trifluoro-3-hydroxy-1-(2-methylphenyl)-butan-1-one] was run?
A: The activation at 10 µM was under 10%.

Q: What about the “Antagonistic activity” value [1] of the same molecule?
A: Its value is “◯”.

Q: What about the inhibition at 0.1 µM [2, 3] of the same molecule?
A: Its inhibition at 0.1 µM is 79%.

Q: Which results are given for `COc1ccc(C(=O)C2CCN(CC(O)(c3cn(Cc4ccccc4)c4cc([N+](=O)[O-])ccc34)C(F)(F)F)CC2)cc1` (centres unmarked) [Example 73, {1-[2-(1-Benzyl-6-nitro-1H-indol-3-yl)-3,3,3-trifluoro-2-hydroxypropyl]piperidin-4-yl}(4-methoxyphenyl)methanone]?
A: Agonistic activity of 10 μM test compound [1]: ◯; Antagonistic activity of 10 μM test compound [1]: ◯; inhibition at 0.1 µM [2, 3]: 95%

Q: What does the source list for `O=[N+]([O-])c1ccc2c(C(O)(CN3CCN(c4ccccc4)CC3)C(F)(F)F)cn(Cc3ccccc3)c2c1` (centres unmarked) [Example 75, 2-(1-Benzyl-6-nitro-1H-indol-3-yl)-1,1,1-trifluoro-3-(4-phenylpiperazin-1-yl)propan-2-ol]?
A: Agonistic activity of 10 μM test compound [1]: ◯; Antagonistic activity of 10 μM test compound [1]: ◯; inhibition at 0.1 µM [2, 3]: 96%

Q: With `O=[N+]([O-])c1ccc2c(C(O)(CN3CCC(O)(Cc4ccccc4)CC3)C(F)(F)F)cn(Cc3ccccc3)c2c1` (centres unmarked) [Example 76, 4-Benzyl-1-[2-(1-benzyl-6-nitro-1H-indol-3-yl)-3,3,3-trifluoro-2-hydroxypropyl]-piperidin-4-ol] as the molecule, how does the activation at 10 µM [1] read?
A: Its activation at 10 µM is under 10%.

Q: What about the “Antagonistic activity” value [1] of the same molecule?
A: Its value is “◯”.

Q: And the inhibition at 0.1 µM [2, 3]?
A: The inhibition at 0.1 µM was 60%.

Q: What does the source list for `O=[N+]([O-])c1ccc2c(C(O)(CN3CCC(Oc4ccc(F)cc4)CC3)C(F)(F)F)cn(Cc3ccccc3)c2c1` (centres unmarked) [Example 77, 2-(1-Benzyl-6-nitro-1H-indol-3-yl)-1,1,1-trifluoro-3-[4-(4-fluorophenoxy)-piperidin-1-yl]propan-2-ol]?
A: Agonistic activity of 10 μM test compound [1]: ◯; Antagonistic activity of 10 μM test compound [1]: ◯; inhibition at 0.1 µM [2, 3]: 92%

Q: `O=[N+]([O-])c1ccc2c(C(O)(CN3CCC(O)CC3)C(F)(F)F)cn(Cc3ccccc3)c2c1` (centres unmarked) [Example 78, 1-[2-(1-Benzyl-6-nitro-1H-indol-3-yl)-3,3,3-trifluoro-2-hydroxypropyl]piperidin-4-ol] was tested. Which “Agonistic activity of 10 μM test compound” value [1] did it give?
A: Its value is “◯”.

Q: What about the “Antagonistic activity” value [1] of the same molecule?
A: The value was “◯”.

Q: What about the inhibition at 0.1 µM [2, 3] of the same molecule?
A: The inhibition at 0.1 µM was 81%.

Q: With `CN(C(=O)C1CCN(CC(O)(c2cn(Cc3ccccc3)c3cc([N+](=O)[O-])ccc23)C(F)(F)F)CC1)c1ccccc1` (centres unmarked) [Example 95, 1-[2-(1-Benzyl-6-nitro-1H-indol-3-yl)-3,3,3-trifluoro-2-hydroxypropyl]-N-methyl-N-phenylpiperidine-4-carboxamide] as the molecule, how does the activation at 10 µM [1] read?
A: The activation at 10 µM was under 10%.

Q: What about the “Antagonistic activity” value [1] of the same molecule?
A: The value was “◯”.

Q: And the inhibition at 0.1 µM [2, 3]?
A: The inhibition at 0.1 µM was 59%.

Q: With `CC(C)(C)OC(=O)N1CCN(CC(O)(c2cn(Cc3ccccc3)c3cc([N+](=O)[O-])ccc23)C(F)(F)F)CC1` (centres unmarked) [Example 100, tert-Butyl 4-[2-(1-benzyl-6-nitro-1H-indol-3-yl)-3,3,3-trifluoro-2-hydroxypropyl]-piperazine-1-carboxylate] as the molecule, how does the “Agonistic activity of 10 μM test compound” value [1] read?
A: Its value is “◯”.

Q: What about the “Antagonistic activity” value [1] of the same molecule?
A: The value was “◯”.

Q: And the inhibition at 0.1 µM [2, 3]?
A: Its inhibition at 0.1 µM is 101%.

Q: For `O=C(c1cccs1)N1CCN(CC(O)(c2cn(Cc3ccccc3)c3cc([N+](=O)[O-])ccc23)C(F)(F)F)CC1` (centres unmarked) [Example 106, 2-(1-Benzyl-6-nitro-1H-indol-3-yl)-1,1,1-trifluoro-3-[4-(2-thienylcarbonyl)-piperazin-1-yl]propan-2-ol], which “Agonistic activity of 10 μM test compound” value [1] is on record?
A: The value was “◯”.

Q: What about the “Antagonistic activity” value [1] of the same molecule?
A: The value was “◯”.

Q: What about the inhibition at 0.1 µM [2, 3] of the same molecule?
A: The inhibition at 0.1 µM was 101%.

Q: `O=[N+]([O-])c1ccc2c(C(O)(CNCCc3ccccc3)C(F)(F)F)cn(Cc3ccccc3)c2c1` (centres unmarked) [Example 157, 2-(1-Benzyl-6-nitro-1H-indol-3-yl)-1,1,1-trifluoro-3-[(2-phenylethyl)amino]-propan-2-ol] was tested. Which inhibition at 0.1 µM [2, 3] did it give?
A: The inhibition at 0.1 µM was 50%.

Q: `CCOC(=O)CCc1ccc(C(=O)C2CCN(CC(O)(c3cn(Cc4ccccc4)c4cc([N+](=O)[O-])ccc34)C(F)(F)F)CC2)cc1` (centres unmarked) [Example 229, Ethyl 3-[4-({1-[2-(1-benzyl-6-nitro-1H-indol-3-yl)-3,3,3-trifluoro-2-hydroxypropyl]piperidin-4-yl}carbonyl)phenyl]propanoate] was tested. Which inhibition at 0.1 µM [2, 3] did it give?
A: The inhibition at 0.1 µM was 74%.
